In patent publication US4478834A, “Dihydropyridines and their use in the treatment of asthma” (USV Pharmaceutical Corporation, priority 1983, dated 1984):

What was measured:
[1] = Blood pressure in spontaneously hypertensive [SHR] rats; assay type: in vivo, rat; settings: intraperitoneal (ip) dose of 100 mg/Kg, over 2 hours duration
Description: In spontaneously hypertensive [SHR] rats (as described in Laffan, R. J., Patterson, A., Hitch, S. W., Jeunelot, Technique for Prolonged Continuous Recording of Blood Pressures of Unrestricted Rats, Cardiovascular Research, Vol. 6, pp. 319-24, 1972),3,10b-dihydro-2,4-dimethyl-5-oxo-5H[1]benzopyrano[3,4-C]pyridine-1-carboxylic acid ethyl ester (Example 4D) administered intraperitoneal (ip) dose of 100 mg/Kg reduced blood pressure by 17-22% over 2 hours duration.

[2] = system: Cyclic Nucleotide Phosphodiesterase (cNUC-PDE); assay: Cyclic Nucleotide Phosphodiesterase (cNUC-PDE) Assay; assay type: biochemical; settings: compounds initially tested at 100 μM; enzyme source (dog heart or rat mast cell) not given
Description: Cyclic Nucleotide Phosphodiesterase (cNUC-PDE) Assay: CNUC-PDE was measured by a modification of the one-step procedure described by Thompson et al. (1979). The reaction was carried out in 7 ml scintillation vials. The reaction mixture consisted of 5 mM MgCl2., 50 mM tris-(hydroxymethyl)aminomethane buffered to pH 8.0 at 37° C. with hydrochloric acid (Tris-chloride), 1-2×10^5 cpm ^3 H-labeled cyclic nucleotide substrate, appropriate concentration of non-labeled cyclic nucleotide, 25 μg/ml lyophilized Ophiophagus hannah venom and appropriate enzyme for linear reaction conditions. The timed reactions were initiated by the addition of an enzyme, incubated at 37° C. for appropriate times for linear reaction rates, and stopped with the addition of 0.8 ml of 50% (v/v) AG 1×8 (200-400 mesh) ion-exchange resin in 50% (v/v) ethanol-Tris-acetate buffer (pH 8.0). The vials were vortexed and the resin mixture allowed to equilibrate for 15 min at 4° C. Scintillation fluid (4.5 ml) was added and radioactivity quantitated in a liquid scintillation counter.
Dog Heart Enzyme Preparations: Mongrel dogs were overdosed with Nembutal® and their hearts surgically removed. […]
Mast Cell Enzyme Preparations: Peritoneal cells were collected and mast cells purified by a procedure similar to that described by Yurt et al., (1977). […] The cells ([…]) were counted with a haemocytometer. […]

[3] = system: guinea pig lung; assay: guinea pig lung inhibition
Description: The activity of a compound is expressed as % inhibition of net antigen-induced histamine release. In the case of an active compound the concentration of the compound required for 50% inhibition for AIR (I50) is determined.

| SMILES | reduced blood pressure [1] | PDE inhibition [2] | guinea pig lung inhibition [3] |
| --- | --- | --- | --- |
| CCOC(=O)C1=C(C)NC(C)=C2C(=O)Oc3ccccc3C12 (stereo not drawn) [Example 4D, 3,10b-Dihydro-2,4-dimethyl-5-oxo-5H[1]benzo-pyrano[3,4-c]pyridine-1-carboxylic acid ethyl ester] | 17-22% | – | – |
| CCOC(=O)C1=C(C)NC(C)=C2C(=O)Nc3ccccc3C21 (stereo not drawn) [Example 3C, 3,5,6,10b-Tetrahydro-2,4-dimethyl-5-oxo-benzo[c][2,7]naphthyridine-1-carboxylic acid ethyl ester] | – | < 60% | < 50% |
